# According to publication PMC11432330, “Novel Drug-like HsrA Inhibitors Exhibit Potent Narrow-Spectrum Antimicrobial Activities against Helicobacter pylori” (International Journal of Molecular Sciences, 2024):
# Tested on: H. pylori 26695
# Assay: In vivo inhibition of HsrA: RNA-Seq transcriptomic analysis of exposed cells
# Assay type: cell-based, Helicobacter pylori
# Details: for log2 Fold Change: exposed to lethal concentrations vs control
# Protocol: Bacterial growth from three blood agar plates of H. pylori ATCC 700392 (aka 26695) incubated for 48 h at 37 °C under microaerobic conditions was aseptically resuspended in BHI + FBS and adjusted to 10^7 CFU/mL. BHI broth cultures were incubated microaerobically at 37 °C for 24 h. […] At this time, bacterial growth was stopped by adding 1.5 mL ice-cold RNA stop solution (95% absolute ethanol, 5% acid-buffered phenol) and subsequently incubated on ice. Control samples were exposed to the same amount of DMSO instead of the inhibitor. Helicobacter cells from all samples were harvested by centrifugation (4000 rpm at 4 °C for 10 min), then the pellets were quickly frozen by immersion in liquid nitrogen and stored at −80 °C.
# RNA-Seq analysis was performed by GENEWIZ (Azenta Life Sciences, Leipzig, Germany). Frozen cell pellets from two biological replicates of each treatment condition were properly submitted to GENEWIZ in dry ice. RNA-Seq libraries were prepared according to standard protocols via rRNA depletion, RNA fragmentation and random priming, reverse transcription, 5’-phosphorylation and dA-tailing of cDNAs, adaptor ligation, and PCR enrichment. Once the quality of each library was confirmed, they were sequenced on an Illumina NovaSeq 6000 (Illumina, San Diego, CA, USA) with 150-bp paired-ends. Raw sequence reads were filtered to remove possible adapter sequences and nucleotides with poor quality using Trimmomatic v.0.36 [105]. The trimmed reads were subsequently mapped to the H. pylori strain 26695 reference genome NC_000915.1 available on NCBI, by using the Bowtie2 aligner v.2.2.6 [106]. Unique gene hit counts were calculated by using featureCounts from the Subread package v.1.5.2. Only unique reads that fell within the gene regions were counted. Using DESeq2 [108], a comparison of the gene expression between the control and treated groups of samples was performed. The Wald test was used to generate p-values and log2 fold changes. Genes with an adjusted p-value < 0.05 and absolute log2 fold change >1 were considered as differentially expressed genes (DEGs) for each comparison. The RNA-Seq data generated in this study have been deposited in ArrayExpress with the accession number E-MTAB-14255.
# [1] = RNA-Seq, 4 × MIC, vs control samples
structure (smiles),measurement,setting,value
"NC(=NOC(=O)Nc1ccc(Cl)cc1)c1csc([N+](=O)[O-])c1 [Ligand V, N′-{[(4-chloroanilino)carbonyl]}oxy-5-nitrothiophene-3-carboximidamide]",Exposure until log10 CFU/mL diminished in one unit,"4 × MIC, ~3 × 10^7 CFU/mL H. pylori 26695",~ 2 h
same,"Depletion in gene expression of 50S ribosomal proteins L21, L35, L27 and 30S ribosomal protein S10","RNA-Seq, 4 × MIC",> 5.8 fold
same,Downregulation of ferrous iron transporter FeoB,"RNA-Seq, 4 × MIC",~ 2.5 fold
same,ORFs of the H. pylori genome with influenced expression,"RNA-Seq, 4 × MIC",23%
same,"Upregulation of ferritin (pfr, hp0653)","RNA-Seq, 4 × MIC",4.7 fold
same,Upregulation of ferritin-like iron-binding protein NapA,"RNA-Seq, 4 × MIC",2.3 fold
same,Genes downregulated,[1],155
same,Genes upregulated,[1],212
same,ORF with significantly changed transcript levels,"RNA-Seq, 4 × MIC, absolute log2 fold change > 1, p-value < 0.05",367
same,log2 Fold Change HP0013,"gene HP0013, lethal concentrations of V vs control",0.182
same,log2 Fold Change HP0018,"gene HP0018, lethal concentrations of V vs control",0.356
same,log2 Fold Change,gene HP0022,-0.512
same,log2 Fold Change HP0028,"gene HP0028, lethal concentrations of V vs control",0.408
same,log2 Fold Change,gene HP0029,-0.496
same,log2 Fold Change HP0030,"gene HP0030, lethal concentrations of V vs control",0.184
same,log2 Fold Change HP0033,"gene HP0033, lethal concentrations of V vs control",0.361
same,log2 Fold Change,gene HP0043,-0.566
same,log2 Fold Change,gene HP0054,-0.519
same,log2 Fold Change HP0063,"gene HP0063, lethal concentrations of V vs control",0.326
same,log2 Fold Change HP0066,"gene HP0066, lethal concentrations of V vs control",0.182
same,log2 Fold Change HP0081,"gene HP0081, lethal concentrations of V vs control",0.173
same,log2 Fold Change HP0082,"gene HP0082, lethal concentrations of V vs control",0.224
same,log2 Fold Change HP0089,"gene HP0089, lethal concentrations of V vs control",0.244
same,log2 Fold Change,gene HP0099,-0.573
same,log2 Fold Change HP0102,"gene HP0102, lethal concentrations of V vs control",0.190
same,log2 Fold Change HP0104,"gene HP0104, lethal concentrations of V vs control",0.451
same,log2 Fold Change HP0106,"gene HP0106, lethal concentrations of V vs control",0.286
same,log2 Fold Change HP0121,"gene HP0121, lethal concentrations of V vs control",0.408
same,log2 Fold Change HP0138,"gene HP0138, lethal concentrations of V vs control",0.430
same,log2 Fold Change,gene HP0141,-0.503
same,log2 Fold Change,gene HP0142,-0.490
same,log2 Fold Change HP0144,"gene HP0144, lethal concentrations of V vs control",0.204
same,log2 Fold Change HP0145,"gene HP0145, lethal concentrations of V vs control",0.164
same,log2 Fold Change,gene HP0149,-0.471
same,log2 Fold Change,gene HP0151,1.340
same,log2 Fold Change HP0152,"gene HP0152, lethal concentrations of V vs control",0.161
same,log2 Fold Change HP0155,"gene HP0155, lethal concentrations of V vs control",0.192
same,log2 Fold Change,gene HP0159,-0.532
same,log2 Fold Change HP0166,"gene HP0166, lethal concentrations of V vs control",0.208
same,log2 Fold Change HP0170,"gene HP0170, lethal concentrations of V vs control",0.476
same,log2 Fold Change HP0186,"gene HP0186, lethal concentrations of V vs control",0.474
same,log2 Fold Change HP0195,"gene HP0195, lethal concentrations of V vs control",0.229
same,log2 Fold Change,gene HP0202,-0.569
same,log2 Fold Change HP0209,"gene HP0209, lethal concentrations of V vs control",0.364
same,log2 Fold Change HP0214,"gene HP0214, lethal concentrations of V vs control",0.273
same,log2 Fold Change HP0215,"gene HP0215, lethal concentrations of V vs control",0.474
same,log2 Fold Change HP0221,"gene HP0221, lethal concentrations of V vs control",0.231
same,log2 Fold Change,gene HP0222,-0.475
same,log2 Fold Change HP0224,"gene HP0224, lethal concentrations of V vs control",0.431
same,log2 Fold Change HP0230,"gene HP0230, lethal concentrations of V vs control",0.223
same,log2 Fold Change HP0234,"gene HP0234, lethal concentrations of V vs control",0.200
same,log2 Fold Change,gene HP0257,-0.600
same,log2 Fold Change HP0263,"gene HP0263, lethal concentrations of V vs control",0.370
same,log2 Fold Change HP0267,"gene HP0267, lethal concentrations of V vs control",0.453
same,log2 Fold Change,gene HP0268,-0.504
same,log2 Fold Change,gene HP0285,-0.482
same,log2 Fold Change HP0290,"gene HP0290, lethal concentrations of V vs control",0.227
same,log2 Fold Change,gene HP0293,-0.482
same,log2 Fold Change HP0315,"gene HP0315, lethal concentrations of V vs control",0.371
same,log2 Fold Change HP0316,"gene HP0316, lethal concentrations of V vs control",0.320
same,log2 Fold Change HP0322,"gene HP0322, lethal concentrations of V vs control",0.305
same,log2 Fold Change HP0329,"gene HP0329, lethal concentrations of V vs control",0.261
same,log2 Fold Change HP0338,"gene HP0338, lethal concentrations of V vs control",0.386
same,log2 Fold Change HP0339,"gene HP0339, lethal concentrations of V vs control",0.459
same,log2 Fold Change HP0340,"gene HP0340, lethal concentrations of V vs control",0.379
same,log2 Fold Change HP0348,"gene HP0348, lethal concentrations of V vs control",0.281
same,log2 Fold Change HP0360,"gene HP0360, lethal concentrations of V vs control",0.234
same,log2 Fold Change HP0385,"gene HP0385, lethal concentrations of V vs control",0.352
same,log2 Fold Change HP0391,"gene HP0391, lethal concentrations of V vs control",0.386
same,log2 Fold Change HP0393,"gene HP0393, lethal concentrations of V vs control",0.172
same,log2 Fold Change,gene HP0396,-0.496
same,log2 Fold Change HP0405,"gene HP0405, lethal concentrations of V vs control",0.308
same,log2 Fold Change HP0408,"gene HP0408, lethal concentrations of V vs control",0.201
same,log2 Fold Change HP0416,"gene HP0416, lethal concentrations of V vs control",0.330
same,log2 Fold Change,gene HP0418,-0.527
same,log2 Fold Change HP0420,"gene HP0420, lethal concentrations of V vs control",0.289
same,log2 Fold Change HP0437,"gene HP0437, lethal concentrations of V vs control",0.205
same,log2 Fold Change HP0440,"gene HP0440, lethal concentrations of V vs control",0.156
same,log2 Fold Change HP0441,"gene HP0441, lethal concentrations of V vs control",0.254
same,log2 Fold Change HP0447,"gene HP0447, lethal concentrations of V vs control",0.436
